# Laboratory results published in patent US4556560A, “Methods for the treatment and prophylaxis of diaper rash and diaper dermatitis” (The Procter & Gamble Company, priority 1983, dated 1985).
# Columns and labels:
# [1] = test system: primary skin irritation caused by prolonged contact of a urine/feces mixture under occluded conditions; test: Hairless mouse patch test: feces/urea homogenate patched with lipase-inhibiting agent solution (Examples I-V); format: in vivo, hairless mice
# Source text: (§1) This method may be used to determine the utility and effect of lipase-inhibiting agents, or compositions containing these agents, on primary skin irritation caused by prolonged contact of a urine/feces mixture under occluded conditions.
# (§2) Male, hairless mice at 8-12 weeks of age are used for the study. The animals are housed individually in plastic shoe box cages for the experiments, and fed Purina® Rodent Laboratory Chow and tap water ad libitum. Mice are assigned numbers during each study which are posted on each cage.
# (§3) The mice are cared for, and the room conditions maintained following acceptable animal study conditions.
# (§4) Patch treatment compositions are prepared by taking the fecal material to be tested and mixing it with a 2% urea solution at a weight:weight ratio of 1:4 feces:urea. 0.1 ml of the lipase-inhibiting agent solution or composition of the desired concentration is patched along with 0.375 ml of the urine/feces mixture. Patches for the mice are prepared by saturating an absorbent material (such as cotton) with the feces/urine suspension, placing it on the skin and covering it with an impermeable material. For example, this may be done by cutting away the adhesive border from a 37×20 mm Webril pad. The Webril pad will then be cut into quarters to obtain 1 cm^2 patches. Each patch will be saturated with 0.1 ml of the lipase-inhibiting agent solution and 0.375 ml of the urine/feces mixture. The control patch is simply 0.375 ml of the urine/feces mixture. Prior to application of test or control patches, each mouse is anesthetized by placement into a chamber containing ether. The test patch is then placed midline on the mouse back, towards the shoulder, and covered with Blenderm® (3M) tape in order to occlude the patch site. The mouse is next wrapped with Scanpor® tape (Norgeplaster A/S) to secure the patch. After 24 hrs., the initial patch is removed and a fresh patch of test substance or a fresh control is applied, as described above. After 24 hrs., the second patch is removed, thus giving a total occluded patch time of 48 hrs.
# (§5) Approximately 1 hr. after removal of the second patch, the test site skin condition is evaluated using the grading scales outlined in the following tables:
# (§6) Each animal is examined by two graders, at least one of whom is blind as to the treatments applied. Both graders' scores should be calculated for each of the above categories, as well as a primary Irritation Index equalling the sum of scores for each category.
# (§7) In Examples I-V, fecal material is mixed with a 2% urea solution at a weight:weight ratio of 1:4 feces:urea, and this homogenate is patched as described above in the Hairless Mouse model with 0.375 ml of this homogenate. The pure homogenate is patched as the control. Where a specific concentration of lipase-inhibiting agent is expressed, the feces/urea homogenate is patched in combination with 0.1 ml of a solution of the described lipase-inhibiting agent solution.
# lipase [2] = test: Lipase activity of stool-free, urine-free pure lipase composition with lipase-inhibiting agent (Examples VI, VII); format: biochemical; design: LIPASE ACTIVITY: unit not given here; conditions: for % REDUCTION LIPASE ACTIVITY / LIPASE ACTIVITY: pure lipase composition; for inhibition of lipase: inability to provide the critical level of free metal ion Zn++
# Protocol: (§8) For example, the method of commerce available from Harleco® diagnostics utilizes the activity of lipase, i.e., the digestion of triglycerides to diglycerides and monoglycerides, glycerol and free fatty acids. After this digestion is allowed to proceed at the optimal buffered pH, the turbidity is measured spectrophotometrically at 400 nanometers.
# (§9) In Examples VI and VII, a stool-free and urine-free pure lipase composition of the expressed activity is patched in the Hairless Mouse model as described above. This is the Control. This lipase composition is patched in combination with 0.1 ml of the lipase-inhibiting agent solution at the concentration expressed.
# In this Example, a non-stool, no-urine pure lipase composition is patched in the hairless mouse model, and then in combination with a lipase-inhibiting agent at the indicated concentrations.
# lipase [3] = test: Relative lipase activity of the feces/urea patch with lipase-inhibiting agent (Examples I, II, IV); format: biochemical
# Protocol: as §8, §7
# [4] = test system: lipase-related skin irritation; test: Hairless mouse patch test with pure lipase composition (Example VII); format: in vivo, hairless mice; conditions: 100 mM (ZnO, ZnCO3, Zn undecylenate patched as suspensions)
# Source text: as §1, §2, §3, §4, §5, §6
# as §9, with “expressed. […]” for “expressed.”
# [5] = footnote to Example VII
# [6] = background statement; cited from earlier work
# [7] = Example III, 100 mM, control 4.95 ± 0.45 (control lipase activity 100,000)
# [8] = Example VI, 50 mM, lipase control 40,320
# [9] = Example VI, 100 mM, lipase control 40,320
# [10] = Example I, 10 mM agent solution, control 6250
# [11] = Example I, 25 mM agent solution, control 6250
# [12] = Example I, 50 mM agent solution, control 6250
# [13] = Example I, 100 mM agent solution, control 6250
# [14] = Example I, 10 mM, 0.1 ml with 0.375 ml feces/urea homogenate, 48 hrs occluded, control 7.20 ± 0.75
# [15] = Example I, 25 mM, 0.1 ml with 0.375 ml feces/urea homogenate, 48 hrs occluded, control 7.20 ± 0.75
# [16] = Example I, 50 mM, 0.1 ml with 0.375 ml feces/urea homogenate, 48 hrs occluded, control 7.20 ± 0.75
# [17] = Example I, 100 mM, 0.1 ml with 0.375 ml feces/urea homogenate, 48 hrs occluded, control 7.20 ± 0.75
# [18] = Example IV, 10 mM, control 127,500
# [19] = Example IV, 25 mM, control 127,500
# [20] = Example IV, 50 mM, control 127,500
# [21] = Example IV, 100 mM, control 127,500
# [22] = Example V, 100 mM, control 4.45 ± 0.17
# [23] = Example VII, 100 mM (ZnO, ZnCO3, Zn undecylenate patched as suspensions), control 36,750
compound,measurement,setting,value
"[Ca+2].[Cl-].[Cl-] [CaCl2, reference compound]",IRRITATION INDEX,[1]; [7],3.55 ± 1.10
"[Cl][Co][Cl] [CoCl2, cobalt chloride]",% REDUCTION LIPASE ACTIVITY,"lipase [2]; Example VI, 50 mM",41%
same,LIPASE ACTIVITY,lipase [2]; [8],"23,750"
same,% REDUCTION LIPASE ACTIVITY,"lipase [2]; Example VI, 100 mM",81%
same,LIPASE ACTIVITY,lipase [2]; [9],"7,750"
"O=S(=O)([O-])[O-].[Cu+2] [CuSO4, copper sulfate]",% REDUCTION LIPASE ACTIVITY,"lipase [2]; Example VI, 50 mM",54%
same,LIPASE ACTIVITY,lipase [2]; [8],"18,500"
same,% REDUCTION LIPASE ACTIVITY,"lipase [2]; Example VI, 100 mM",59%
same,LIPASE ACTIVITY,lipase [2]; [9],"16,500"
"O.O.O.O.O.O=S(=O)([O-])[O-].[Cu+2] [CuSO4.5H2 O, copper sulfate pentahydrate]",RELATIVE LIPASE ACTIVITY,lipase [3]; [10],4750
same,RELATIVE LIPASE ACTIVITY,lipase [3]; [11],2250
same,RELATIVE LIPASE ACTIVITY,lipase [3]; [12],750
same,RELATIVE LIPASE ACTIVITY,lipase [3]; [13],0
same,IRRITATION INDEX,[1]; [14],6.75 ± 1.42
same,IRRITATION INDEX,[1]; [15],5.35 ± 2.93
same,IRRITATION INDEX,[1]; [16],3.50 ± 3.08
same,IRRITATION INDEX,[1]; [17],5.50 ± 1.05
"O.O.O.O.O.O.[Cl-].[Cl-].[Cl-].[Fe+3] [FeCl3.6H2 O, iron(III)chloride hexahydrate]",RELATIVE LIPASE ACTIVITY,lipase [3]; [18],"177,500"
same,RELATIVE LIPASE ACTIVITY,lipase [3]; [19],"128,750"
same,RELATIVE LIPASE ACTIVITY,lipase [3]; [20],"111,350"
same,RELATIVE LIPASE ACTIVITY,lipase [3]; [21],6250
same,% REDUCTION LIPASE ACTIVITY,"lipase [2]; Example VI, 50 mM",99%
same,LIPASE ACTIVITY,lipase [2]; [8],500
same,% REDUCTION LIPASE ACTIVITY,"lipase [2]; Example VI, 100 mM",100%
same,LIPASE ACTIVITY,lipase [2]; [9],0
"[Cl][La]([Cl])[Cl] [LaCl3, lanthanum chloride]",IRRITATION INDEX,[1]; [7],0 ± 0
"[Cl][Sn][Cl] [SnCl2, tin(II)chloride]",IRRITATION INDEX,[1]; [22],0.50 ± 0.16
same,% REDUCTION LIPASE ACTIVITY,"lipase [2]; Example VI, 50 mM",93%
same,LIPASE ACTIVITY,lipase [2]; [8],"3,000"
same,% REDUCTION LIPASE ACTIVITY,"lipase [2]; Example VI, 100 mM",97%
same,LIPASE ACTIVITY,lipase [2]; [9],"1,250"
C=CCCCCCCCCC(=O)[O-].C=CCCCCCCCCC(=O)[O-].[Zn+2] [Zn undecylenate],% REDUCTION IN IRRITATION INDEX,[4],73%
same,LIPASE ACTIVITY,lipase [2]; [23],"10,080"
"O=C([O-])[O-].[Zn+2] [ZnCO3, zinc carbonate, reference compound]",% REDUCTION IN […],[4],5%
same,LIPASE ACTIVITY,lipase [2]; [23],"35,000"
same,inhibition of lipase,lipase [2],ineffective
"[Cl-].[Cl-].[Zn+2] [ZnCl2, zinc chloride]",RELATIVE LIPASE ACTIVITY,lipase [3]; [10],5000
same,RELATIVE LIPASE ACTIVITY,lipase [3]; [11],0
same,RELATIVE LIPASE ACTIVITY,lipase [3]; [12],0
same,RELATIVE LIPASE ACTIVITY,lipase [3]; [13],0
same,RELATIVE LIPASE ACTIVITY,"lipase [3]; Example II, 20 mM, control 6000",500
same,RELATIVE LIPASE ACTIVITY,"lipase [3]; Example II, 30 mM, control 6000",1250
same,RELATIVE LIPASE ACTIVITY,"lipase [3]; Example II, 40 mM, control 6000",0
same,RELATIVE LIPASE ACTIVITY,"lipase [3]; Example II, 50 mM, control 6000",0
same,RELATIVE LIPASE ACTIVITY,"lipase [3]; Example II, 60 mM, control 6000",0
same,RELATIVE LIPASE ACTIVITY,"lipase [3]; Example II, 70 mM, control 6000",0
same,RELATIVE LIPASE ACTIVITY,lipase [3]; [18],"72,500"
same,RELATIVE LIPASE ACTIVITY,lipase [3]; [19],0
same,RELATIVE LIPASE ACTIVITY,lipase [3]; [20],0
same,RELATIVE LIPASE ACTIVITY,lipase [3]; [21],0
same,% REDUCTION IN IRRITATION INDEX,[4],97%
same,IRRITATION INDEX,[1]; [14],6.05 ± 1.23
same,IRRITATION INDEX,[1]; [15],4.95 ± 1.36
same,IRRITATION INDEX,[1]; [16],0.80 ± 1.01
same,IRRITATION INDEX,[1]; [17],1.15 ± 0.97
same,IRRITATION INDEX,"[1]; Example II, 20 mM, control 6.67 ± 0.94",3.50 ± 2.44
same,IRRITATION INDEX,"[1]; Example II, 30 mM, control 6.67 ± 0.94",4.87 ± 1.37
same,IRRITATION INDEX,"[1]; Example II, 40 mM, control 6.67 ± 0.94",2.62 ± 1.86
same,IRRITATION INDEX,"[1]; Example II, 50 mM, control 6.67 ± 0.94",2.54 ± 1.78
same,IRRITATION INDEX,"[1]; Example II, 60 mM, control 6.67 ± 0.94",1.42 ± 1.62
same,IRRITATION INDEX,"[1]; Example II, 70 mM, control 6.67 ± 0.94",1.17 ± 1.01
same,IRRITATION INDEX,[1]; [7],0.55 ± 1.23
same,IRRITATION INDEX,"[1]; Example IV, 10 mM, control 6.15 ± 1.08",5.55 ± 0.95
same,IRRITATION INDEX,"[1]; Example IV, 25 mM, control 6.15 ± 1.08",0.50 ± 0.82
same,IRRITATION INDEX,"[1]; Example IV, 50 mM, control 6.15 ± 1.08",0.45 ± 0.64
same,IRRITATION INDEX,"[1]; Example IV, 100 mM, control 6.15 ± 1.08",1.75 ± 1.65
same,IRRITATION INDEX,[1]; [22],1.85 ± 0.61
same,% REDUCTION LIPASE ACTIVITY,"lipase [2]; Example VI, 50 mM",96%
same,LIPASE ACTIVITY,lipase [2]; [8],"1,500"
same,% REDUCTION LIPASE ACTIVITY,"lipase [2]; Example VI, 100 mM",98%
same,LIPASE ACTIVITY,lipase [2]; [9],750
same,LIPASE ACTIVITY,lipase [2]; [23],"1,250"
"[O]=[Zn] [ZnO, zinc oxide, reference compound]",concentration of solution the salt is capable of forming,[5],20 µM
same,solubility in water,[6],almost totally insoluble
same,% REDUCTION IN […],[4],10%
same,LIPASE ACTIVITY,lipase [2]; [23],"33,000"
same,inhibition of lipase,lipase [2],ineffective
Zinc glycerolate,solubility in water,[6],insoluble
